Laboratory results: patent US20080194585A1, “Fungicidal Pyrazine Derivatives” (priority 2005, published 2008)
Read-outs that look alike come from different tables or passages of the source. Marks after values point to notes of the source that are not given here.

What was measured:
Septoria tritici = test: Test J: wheat leaf blotch, preventive spray on wheat seedlings; assay type: in vivo
From the text: A dash (-) indicates no test results.

[1] = tested on: Erysiphe graminis f. sp. tritici; test: Test L: wheat powdery mildew, preventive spray on wheat seedlings; conditions: for pest or weed control at 200 ppm: read-out: Test L disease control rating, 200 ppm
[2] = tested on: Puccinia recondita f. sp. tritici; test: Test K: wheat leaf rust, preventive spray on wheat seedlings
Botrytis cinerea = test: Test E: tomato botrytis, preventive spray on tomato seedlings
fusarium graminearium = test: Test I: wheat head scab, preventive spray on wheat seedlings; conditions: for Test I disease control rating: 200 ppm; for pest or weed control at 200 ppm: Fusarium, in Triticum aestivum, topical, 192 h, read-out: Test I disease control rating, 200 ppm
Procedure: (the causal agent of wheat head scab) and incubated in a saturated atmosphere at 20° C. for 72 h, and then moved to a growth chamber at 22° C. for 5 days, after which disease ratings were made.

[3] = tested on: Colletotrichum orbiculare; test: Test B: cucumber Colletotrichum anthracnose, preventive spray on cucumber seedlings; conditions: for pest or weed control at 200 ppm: read-out: Test B disease control rating, 200 ppm
Phytophthora infestans = test: whole plant or invertebrate; assay type: in vivo; conditions: for Test F disease control rating: 200 ppm; for pest or weed control at 200 ppm: Phytophthora infestans, in Solanum lycopersicum, topical, 144 h, read-out: Test F disease control rating
Pythium aphanidermatum = test: Test A: bluegrass pythium blight, preventive spray on bluegrass seedlings; conditions: for Test A disease control rating: 200 ppm; for pest or weed control at 200 ppm: Pythium aphanidermatum, 120 h, read-out: Test A disease control rating
Septoria nodorum = test: Test H: wheat glum blotch, preventive spray on wheat seedlings; conditions: for pest or weed control at 200 ppm: read-out: Test H disease control rating, 200 ppm
Procedure: (the causal agent of wheat glum blotch) and incubated in a saturated atmosphere at 20° C. for 48 h, and then moved to a growth chamber at 22° C. for 5 days, after which disease ratings were made.

Plasmopara viticola = test: Test D: grape downy mildew, spray after inoculation of grape seedlings; assay type: in vivo; conditions: 200 ppm; for pest or weed control at 200 ppm: Plasmopara viticola, 168 h, read-out: Test D disease control rating
From the text: Upon removal, disease ratings were made. […] A dash (-) indicates no test results.

Sclerotinia sclerotiorum = test: Test C: cucumber white mold, preventive spray on cucumber seedlings; conditions: for Test C disease control rating: 200 ppm; for pest or weed control at 200 ppm: Sclerotinia sclerotiorum, in Cucumis sativus, 168 h, read-out: Test C disease control rating, 200 ppm
Rhizoctonia oryzae = test: Test G: turf brown patch, preventive spray on creeping bent grass seedlings; conditions: for pest or weed control at 200 ppm: read-out: Test G disease control rating, 200 ppm
Procedure: (the causal agent of turf brown patch) and incubated in a saturated atmosphere at 27° C. for 24 h, and then moved to a growth chamber at 27° C. for 5 days, after which disease ratings were made.

[4] = 200 ppm, 100 = 100% disease control, 0 = no control
[5] = 100 = 100% disease control, 0 = no control
[6] = Blumeria graminis, in Triticum aestivum, 168 h
[7] = Puccinia recondita, in Triticum aestivum, 192 h, read-out: Test K disease control rating
[8] = Botrytis cinerea, in Solanum lycopersicum, topical, 72 h, read-out: Test E disease control rating
[9] = Colletotrichum orbiculare, in Cucumis sativus, 144 h
[10] = Parastagonospora nodorum, in Triticum aestivum, topical, 168 h
[11] = Waitea circinata, in Agrostis stolonifera, topical, 144 h
[12] = 40 ppm (marked *), 100 = 100% disease control, 0 = no control

SMILES | Test J disease control rating (Septoria tritici; [4]) [%] | Test L disease control rating [1, 4] [%] | Test K disease control rating [2, 4] [%] | Test E disease control rating (Botrytis cinerea; [4]) [%] | Test I disease control rating (fusarium graminearium; [5]) [%] | Test B disease control rating [3, 4] [%] | Test F disease control rating (Phytophthora infestans; [5]) [%] | Test A disease control rating (Pythium aphanidermatum; [5]) [%] | Test H disease control rating (Septoria nodorum; [4]) [%] | Test D disease control rating (Plasmopara viticola; [5]) [%] | Test C disease control rating (Sclerotinia sclerotiorum; [5]) [%] | Test G disease control rating (Rhizoctonia oryzae; [4]) [%] | Test F disease control rating (Phytophthora infestans) [%] | Test A disease control rating (Pythium aphanidermatum) [%] | Test I disease control rating (fusarium graminearium) [%] | Test D disease control rating (Plasmopara viticola) [%] | Test C disease control rating (Sclerotinia sclerotiorum) [%] | other results
CCC(C)Cn1c(-c2ccc(F)cc2Cl)c(Cl)nc(-n2ccc(Br)n2)c1=O (racemic) [compound 259] | 100 | 59 | 89 | 100 | 0 | 94 | 0 | 82 | 0 | 0 | 0 | 16 | – | – | – | – | – | –
CCC(C)Cn1c(-c2ccc(F)cc2Cl)c(Cl)nc(-n2cc(Br)c(C)n2)c1=O (racemic) [compound 260] | 97 | 50 | 80 | 99 | 0 | 9 | 0 | 0 | 0 | 0 | 0 | 0 | – | – | – | – | – | –
CCC(C)Cn1c(-c2ccc(F)cc2Cl)c(Cl)nc(-n2ccc(C(OC)OC)n2)c1=O (racemic) [compound 261] | 100 | 98 | 100 | 100 | 0 | 100 | 0 | 0 | 99 | 40 | 83 | 0 | – | – | – | – | – | –
CC(C)Cn1c(-c2c(F)cccc2F)c(Cl)nc(-c2ccccn2)c1=O [Compound 2, 5-Chloro-6-(2,6-difluorophenyl)-1-(2-methylpropyl)-3-(2-pyridinyl)-2(1H)-pyrazinone] | – | – | – | – | – | – | – | – | – | – | – | – | – | – | – | – | – | pest or weed control at 200 ppm (Septoria tritici; Zymoseptoria tritici, 528 h, 200 ppm, read-out: Test J disease control rating): 99%; pest or weed control at 200 ppm [1, 6]: 100%; pest or weed control at 200 ppm [2, 7]: 100%; pest or weed control at 200 ppm (Botrytis cinerea; [8]): 100%; pest or weed control at 200 ppm (fusarium graminearium): 97%; pest or weed control at 200 ppm [3, 9]: 100%; pest or weed control at 200 ppm (Phytophthora infestans): 0%; pest or weed control at 200 ppm (Pythium aphanidermatum): 38%; pest or weed control at 200 ppm (Septoria nodorum; [10]): 100%; pest or weed control at 200 ppm (Plasmopara viticola): 77%; pest or weed control at 200 ppm (Sclerotinia sclerotiorum): 97%; pest or weed control at 200 ppm (Rhizoctonia oryzae; [11]): 100%
CC(C)Cn1c(-c2ccc(F)cc2Cl)c(Cl)nc(-n2cccn2)c1=O [Compound 53, 5-Chloro-6-(2-chloro-4-fluorophenyl)-1-(2-methylpropyl)-3-(1H-pyrazol-1-yl)-2(1H)-pyrazinone] | – | – | – | – | – | – | – | – | – | – | – | – | 0 | 0 | – | – | – | Test J disease control rating (Septoria tritici; 40 ppm (*)): 100* %; pest or weed control at 200 ppm [1, 6]: 99%; pest or weed control at 200 ppm [2, 7]: 100%; pest or weed control at 200 ppm (Botrytis cinerea; [8]): 100%; pest or weed control at 200 ppm (fusarium graminearium): 90%; pest or weed control at 200 ppm [3, 9]: 100%; pest or weed control at 200 ppm (Septoria nodorum; [10]): 100%; pest or weed control at 200 ppm (Plasmopara viticola): 0%; pest or weed control at 200 ppm (Sclerotinia sclerotiorum): 99%; pest or weed control at 200 ppm (Rhizoctonia oryzae; [11]): 82%
CC(C)Cn1c(-c2ccc(F)cc2Cl)c(Cl)nc(-n2cccn2)c1=O [Compound 302, 5-Chloro-6-(2-chloro-4-fluorophenyl)-1-(2-methylpropyl)-3-(1H-pyrazol-1-yl)-2(1H)-pyrazinone] | – | – | – | – | – | – | – | – | – | 0 | 60 | – | – | – | – | – | – | pest or weed control at 40 ppm (Septoria tritici; Zymoseptoria tritici, 528 h, 40 ppm (marked *), 100 = 100% disease control, 0 = no control, read-out: Test J disease control rating): 100%; pest or weed control at 40 ppm ([1]; Blumeria graminis, in Triticum aestivum, 168 h, read-out: Test L disease control rating, 40 ppm (marked *), 100 = 100% disease control, 0 = no control): 98%; pest or weed control at 40 ppm [2, 7]: 100%; pest or weed control at 40 ppm (Botrytis cinerea; [8]): 100%; pest or weed control at 200 ppm (fusarium graminearium; [5]): 0%; pest or weed control at 40 ppm ([3]; Colletotrichum orbiculare, in Cucumis sativus, 144 h, read-out: Test B disease control rating, 40 ppm (marked *), 100 = 100% disease control, 0 = no control): 98%; pest or weed control at 200 ppm (Phytophthora infestans): 0%; pest or weed control at 200 ppm (Pythium aphanidermatum): 0%; pest or weed control at 40 ppm (Septoria nodorum; Parastagonospora nodorum, in Triticum aestivum, topical, 168 h, read-out: Test H disease control rating, 40 ppm (marked *), 100 = 100% disease control, 0 = no control): 99%; pest or weed control at 40 ppm (Rhizoctonia oryzae; Waitea circinata, in Agrostis stolonifera, topical, 144 h, read-out: Test G disease control rating, 40 ppm (marked *), 100 = 100% disease control, 0 = no control): 94%
CC(C)Cn1c(-c2ccc(F)cc2Cl)c(Cl)nc(-n2cccn2)c1=O [Compound 303, 5-Chloro-6-(2-chloro-4-fluorophenyl)-1-(2-methylpropyl)-3-(1H-pyrazol-1-yl)-2(1H)-pyrazinone] | – | – | – | – | 0 | – | 0 | 0 | – | 58 | 94 | – | – | – | – | – | – | Test J disease control rating (Septoria tritici; [12]): 100* %; Test L disease control rating [1, 12]: 100* %; Test K disease control rating [2, 12]: 100* %; Test E disease control rating (Botrytis cinerea; [12]): 100* %; Test B disease control rating [3, 12]: 100* %; Test H disease control rating (Septoria nodorum; [12]): 100* %; Test G disease control rating (Rhizoctonia oryzae; [12]): 100* %
CCC(C)Cn1c(-c2c(F)cccc2F)c(Cl)nc(-n2ccnc2C)c1=O (stereo not drawn) [compound 69] | – | – | – | – | – | – | – | – | – | – | – | – | 0 | 0 | 0 | 0 | 0 | Test J disease control rating (Septoria tritici; 40 ppm (*)): 62* %; Test L disease control rating ([1]; 40 ppm (*)): 0* %; Test K disease control rating ([2]; 40 ppm (*)): 61* %; Test E disease control rating (Botrytis cinerea; 40 ppm (*)): 0* %; Test H disease control rating (Septoria nodorum; 40 ppm (*)): 0* %; Test G disease control rating (Rhizoctonia oryzae; 40 ppm (*)): 0* %
CC(C)Cn1c(-c2c(F)cccc2F)c(Cl)nc(-c2cncn2C)c1=O [compound 83] | – | – | – | – | – | – | – | – | – | – | – | – | 47 | 0 | 0 | 0 | 64 | Test J disease control rating (Septoria tritici; 200 ppm): 18%; Test L disease control rating ([1]; 200 ppm): 0%; Test K disease control rating ([2]; 200 ppm): 79%; Test E disease control rating (Botrytis cinerea; 200 ppm): 0%; Test B disease control rating ([3]; 200 ppm): 9%; Test H disease control rating (Septoria nodorum; 200 ppm): 0%
CC(C)Cn1c(-c2ccc3ccccc3c2)c(Cl)nc(-n2cccn2)c1=O [compound 90] | – | – | – | – | – | – | – | – | – | – | – | – | 0 | 0 | 0 | 16 | 63 | Test J disease control rating (Septoria tritici; 200 ppm): 0%; Test L disease control rating ([1]; 200 ppm): 0%; Test K disease control rating ([2]; 200 ppm): 0%; Test E disease control rating (Botrytis cinerea; 200 ppm): 0%; Test B disease control rating ([3]; 200 ppm): 0%; Test H disease control rating (Septoria nodorum; 200 ppm): 0%
